Laboratory results published in PubChem BioAssay AID248 (DTP/NCI, 2004).
Inconclusive results and toxic doses are left out. No stated cut-off is given here; in the data, active means T/C of 150% or more; inactive means T/C below 125%.

Test system: L1210 leukemia ip in BDF1 mice, survival T/C
Test: NCI In Vivo Anticancer Drug Screen. Data for tumor model L1210 Leukemia (intraperitoneal) in B6D2F1 (BDF1) mice
Conditions: endpoint: mean survival time, higher = longer survival
Procedure, shortened: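 Read-out is survival time, reported as the treated-group measurement over the vehicle-control measurement.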

[1] = dose: 100.0 mg/kg/injection, schedule: Q04DX003 (ip), vehicle: saline
[2] = dose: 200.0 mg/kg/injection, schedule: Q04DX003 (ip), vehicle: saline
[3] = dose: 400.0 mg/kg/injection, schedule: Q04DX003 (ip), vehicle: saline
[4] = dose: 100.0 mg/kg/injection, schedule: Q01DX009 (ip), vehicle: saline with Tween-80
[5] = dose: 200.0 mg/kg/injection, schedule: Q01DX009 (ip), vehicle: saline with Tween-80
[6] = dose: 100.0 mg/kg/injection, schedule: Q01DX009 (ip), vehicle: Klucel (hydroxypropylcellulose) (HPC)
[7] = dose: 200.0 mg/kg/injection, schedule: Q01DX009 (ip), vehicle: Klucel (hydroxypropylcellulose) (HPC)
[8] = dose: 400.0 mg/kg/injection, schedule: Q01DX009 (ip), vehicle: Klucel (hydroxypropylcellulose) (HPC)
[9] = dose: 100.0 mg/kg/injection, schedule: Q01DX001 (ip), vehicle: saline
[10] = dose: 200.0 mg/kg/injection, schedule: Q01DX001 (ip), vehicle: saline
[11] = dose: 400.0 mg/kg/injection, schedule: Q01DX001 (ip), vehicle: saline
[12] = dose: 25.0 mg/kg/injection, schedule: Q01DX009 (ip), vehicle: saline
[13] = dose: 100.0 mg/kg/injection, schedule: Q01DX001 (ip), vehicle: carboxymethylcellulose (CMC)
[14] = dose: 200.0 mg/kg/injection, schedule: Q01DX001 (ip), vehicle: carboxymethylcellulose (CMC)
[15] = dose: 400.0 mg/kg/injection, schedule: Q01DX001 (ip), vehicle: carboxymethylcellulose (CMC)
[16] = dose: 100.0 mg/kg/injection, schedule: Q04DX003 (ip), vehicle: Klucel (hydroxypropylcellulose) (HPC)
[17] = dose: 200.0 mg/kg/injection, schedule: Q04DX003 (ip), vehicle: Klucel (hydroxypropylcellulose) (HPC)
[18] = dose: 400.0 mg/kg/injection, schedule: Q04DX003 (ip), vehicle: Klucel (hydroxypropylcellulose) (HPC)
[19] = dose: 100.0 mg/kg/injection, schedule: Q01DX001 (ip), vehicle: saline with Tween-80
[20] = dose: 200.0 mg/kg/injection, schedule: Q01DX001 (ip), vehicle: saline with Tween-80
[21] = dose: 100.0 mg/kg/injection, schedule: Q04DX003 (ip), vehicle: saline with Tween-80
[22] = dose: 200.0 mg/kg/injection, schedule: Q04DX003 (ip), vehicle: saline with Tween-80
[23] = dose: 400.0 mg/kg/injection, schedule: Q04DX003 (ip), vehicle: saline with Tween-80

Measured: T/C

OCCCCCc1ccccc1
inactive: dose: 100.0 mg/kg/injection, schedule: Q01DX009 (ip), vehicle: other 105 % of control | [1] 92 % of control | dose: 200.0 mg/kg/injection, schedule: Q01DX009 (ip), vehicle: other 102 % of control | [2] 101 % of control | dose: 400.0 mg/kg/injection, schedule: Q01DX009 (ip), vehicle: other 102 % of control | [3] 90 % of control

CN1CCC2(C1)C1CC3CC(C1)CC2C3 (stereo not given)
inactive: dose: 75.0 mg/kg/injection, schedule: Q01DX001 (ip), vehicle: saline 97 % of control

c1ccc(COP(c2ccccc2)c2ccccc2)cc1
inactive: dose: 25.6 mg/kg/injection, schedule: Q04DX002 (ip), vehicle: saline with Tween-80 100 % of control | dose: 64.0 mg/kg/injection, schedule: Q04DX002 (ip), vehicle: saline with Tween-80 96 % of control | dose: 160.0 mg/kg/injection, schedule: Q04DX002 (ip), vehicle: saline with Tween-80 100 % of control | dose: 400.0 mg/kg/injection, schedule: Q04DX002 (ip), vehicle: saline with Tween-80 100 % of control

O=C1CC2(CCCCC2)C(=O)N1N1CCCCCC1
inactive: dose: 100.0 mg/kg/injection, schedule: Q01DX001 (ip), vehicle: Klucel (hydroxypropylcellulose) (HPC) 102 % of control | dose: 200.0 mg/kg/injection, schedule: Q01DX001 (ip), vehicle: Klucel (hydroxypropylcellulose) (HPC) 100 % of control | dose: 400.0 mg/kg/injection, schedule: Q01DX001 (ip), vehicle: Klucel (hydroxypropylcellulose) (HPC) 97 % of control

COc1ccc(/C=C/C(=O)c2cc(C(=O)O)c(OC)cc2OC)cc1OC
inactive: dose: 12.5 mg/kg/injection, schedule: Q01DX009 (ip), vehicle: saline with Tween-80 111 % of control | dose: 25.0 mg/kg/injection, schedule: Q01DX009 (ip), vehicle: saline with Tween-80 93 % of control | dose: 50.0 mg/kg/injection, schedule: Q01DX009 (ip), vehicle: saline with Tween-80 98 % of control | [4] 98 % of control | [5] 95 % of control

CC[N+](CC)(CC)CCCCC[N+](CC)(CC)CC
inactive: dose: 12.5 mg/kg/injection, schedule: Q01DX009 (ip), vehicle: water 106 % of control | dose: 25.0 mg/kg/injection, schedule: Q01DX009 (ip), vehicle: water 101 % of control | dose: 25.0 mg/kg/injection, schedule: Q04DX003 (ip), vehicle: saline with Tween-80 94 % of control | dose: 50.0 mg/kg/injection, schedule: Q04DX003 (ip), vehicle: saline with Tween-80 94 % of control

CCOC(=O)Oc1ccc(OC)cc1
inactive: [6] 111 % of control | [1] 98 % of control | [7] 96 % of control | [2] 112 % of control | [8] 96 % of control | [3] 124 % of control

COc1cc(S(=O)(=O)F)ccc1NC(=O)/C=C/c1ccc([N+](=O)[O-])cc1
inactive: [9] 103 % of control | [10] 94 % of control | [11] 100 % of control

CCCCCC(C)NCC(C)O (stereo not given)
inactive: dose: 75.0 mg/kg/injection, schedule: Q01DX001 (ip), vehicle: acid diluted with saline 100 % of control

CCC12CCC(=O)C=C1CCCC2=O (stereo not given)
inactive: [12] 100 % of control | dose: 50.0 mg/kg/injection, schedule: Q01DX009 (ip), vehicle: saline 97 % of control | dose: 100.0 mg/kg/injection, schedule: Q01DX009 (ip), vehicle: saline 90 % of control

Nc1ccc(P(=O)(O)O)cc1
inactive: dose: 50.0 mg/kg/injection, schedule: Q01DX001 (ip), vehicle: carboxymethylcellulose (CMC) 101 % of control | [13] 97 % of control | [14] 91 % of control | [15] 91 % of control

CC(=O)Oc1ccc2ccnc(/C=N\NC(N)=S)c2c1
inactive: dose: 100.0 mg/kg/injection, schedule: Q04DX002 (ip), vehicle: Klucel (hydroxypropylcellulose) (HPC) 106 % of control | dose: 200.0 mg/kg/injection, schedule: Q04DX002 (ip), vehicle: Klucel (hydroxypropylcellulose) (HPC) 98 % of control | dose: 400.0 mg/kg/injection, schedule: Q04DX002 (ip), vehicle: Klucel (hydroxypropylcellulose) (HPC) 117 % of control

CC12CCC(C)(O1)C1C(=O)OC(=O)C12 (stereo not given)
inactive: [16] 96 % of control | [17] 98 % of control | [18] 98 % of control

COc1ccc(C(=O)Nc2ccc(C3=NCCN3)cc2)cc1C(=O)Nc1ccc(C2=NCCN2)cc1
inactive: dose: 3.75 mg/kg/injection, schedule: Q01DX Z (ip), vehicle: saline 101 % of control | dose: 7.5 mg/kg/injection, schedule: Q01DX Z (ip), vehicle: saline 116 % of control | dose: 120.0 mg/kg/injection, schedule: Q01DX Z (ip), vehicle: saline 110 % of control
active: dose: 30.0 mg/kg/injection, schedule: Q01DX Z (ip), vehicle: saline 181 % of control | dose: 60.0 mg/kg/injection, schedule: Q01DX Z (ip), vehicle: saline 266 % of control

Nc1nc(Cl)[nH]c1-c1ncn[nH]1
inactive: [9] 92 % of control | [10] 106 % of control

N=C(N)N=Nc1c(O)[nH]c(=O)[nH]c1=O
inactive: dose: 15.0 mg/kg/injection, schedule: Q01DX Z (ip), vehicle: carboxymethylcellulose (CMC) 98 % of control | dose: 30.0 mg/kg/injection, schedule: Q01DX Z (ip), vehicle: carboxymethylcellulose (CMC) 98 % of control | dose: 60.0 mg/kg/injection, schedule: Q01DX Z (ip), vehicle: carboxymethylcellulose (CMC) 93 % of control | dose: 60.0 mg/kg/injection, schedule: Q01DX Z (oral), vehicle: carboxymethylcellulose (CMC) 110 % of control | dose: 120.0 mg/kg/injection, schedule: Q01DX Z (ip), vehicle: carboxymethylcellulose (CMC) 97 % of control | dose: 120.0 mg/kg/injection, schedule: Q01DX Z (oral), vehicle: carboxymethylcellulose (CMC) 108 % of control | dose: 240.0 mg/kg/injection, schedule: Q01DX Z (oral), vehicle: carboxymethylcellulose (CMC) 104 % of control | dose: 480.0 mg/kg/injection, schedule: Q01DX Z (oral), vehicle: carboxymethylcellulose (CMC) 108 % of control

NC(Cc1ccc(OCc2ccccc2)cc1)C(=O)O (stereo not given)
inactive: [19] 92 % of control | [4] 95 % of control | [20] 89 % of control | [5] 90 % of control | dose: 400.0 mg/kg/injection, schedule: Q01DX001 (ip), vehicle: saline with Tween-80 89 % of control | dose: 400.0 mg/kg/injection, schedule: Q01DX009 (ip), vehicle: saline with Tween-80 96 % of control

Cc1ccc(CSC(=N)N)cc1
inactive: [13] 104 % of control

Cc1nc(=O)ccn1Cc1ccccc1
inactive: [1] 101 % of control | [2] 101 % of control | [3] 96 % of control

c1cc2c3c(c1)CCC3CCC2 (stereo not given)
inactive: [21] 90 % of control | [22] 95 % of control | [23] 97 % of control

CCCC1CCC(=C2C(=O)CCC2=O)O1 (stereo not given)
inactive: dose: 3.13 mg/kg/injection, schedule: Q01DX009 (ip), vehicle: saline 95 % of control | dose: 6.25 mg/kg/injection, schedule: Q01DX009 (ip), vehicle: saline 98 % of control | dose: 12.5 mg/kg/injection, schedule: Q01DX009 (ip), vehicle: saline 106 % of control | [12] 104 % of control

CCCOC(=O)COc1ccccc1
inactive: [21] 96 % of control | [22] 96 % of control | [23] 93 % of control

O=C1CCN/C(=N\[N+](=O)[O-])N1
inactive: [19] 101 % of control | [20] 106 % of control

CN1C(=O)c2c(ccc3c2OCO3)C2C(O)Cc3cc4c(cc3C21)OCO4 (stereo not given)
inactive: [9] 100 % of control | [10] 94 % of control | [11] 107 % of control

O=C(Oc1ccccc1)C(Cc1ccccc1)(Cc1ccccc1)C(=O)Oc1ccccc1
inactive: [13] 101 % of control | [14] 95 % of control | [15] 93 % of control

CSc1ccccc1C=O
inactive: [6] 114 % of control | [16] 94 % of control | [7] 105 % of control | [17] 95 % of control | [8] 106 % of control | [18] 95 % of control
